In the NIST ThermoML archive (doi:10.1016/j.jct.2011.08.017):

Assays:
[1] = for vapor or sublimation pressure: Closed cell (Static) method; for Normal melting temperature: DTA
[2] = Molar enthalpy of transition or fusion; conditions: Crystal; DSC

Cn1cnc(C#N)c1C#N [1-methyl-1H-imidazole-4,5-dicarbonitrile]
[1]
Conditions	vapor or sublimation pressure [kPa]
337.86 K, Crystal	0.00034
339.38 K, Crystal	0.00039
340.86 K, Crystal	0.00046
342.35 K, Crystal	0.00053
343.84 K, Crystal	0.00061
345.33 K, Crystal	0.0007
346.81 K, Crystal	0.00082
348.31 K, Crystal	0.00094
349.78 K, Crystal	0.00107
351.29 K, Crystal	0.00124
352.76 K, Crystal	0.00142
354.26 K, Crystal	0.00163
355.73 K, Crystal	0.00186
355.76 K, Metastable liquid	0.00198
357.23 K, Crystal	0.00212
357.23 K, Metastable liquid	0.00221
358.72 K, Crystal	0.00242
358.77 K, Metastable liquid	0.00249
360.71 K, Metastable liquid	0.00284
362.59 K, Liquid	0.0033
364.68 K, Liquid	0.00381
366.64 K, Liquid	0.0044
368.64 K, Liquid	0.00506
370.6 K, Liquid	0.00584
372.61 K, Liquid	0.0067
374.56 K, Liquid	0.00765
376.58 K, Liquid	0.00875
378.53 K, Liquid	0.01
380.52 K, Liquid	0.01138
382.49 K, Liquid	0.01298
384.5 K, Liquid	0.01474
386.44 K, Liquid	0.01668
388.45 K, Liquid	0.01889
390.43 K, Liquid	0.02143
392.4 K, Liquid	0.0241
394.36 K, Liquid	0.02715
396.35 K, Liquid	0.0304
398.31 K, Liquid	0.03419
400.31 K, Liquid	0.03815
402.27 K, Liquid	0.04273
404.27 K, Liquid	0.04766
406.23 K, Liquid	0.05325

Conditions	Normal melting temperature [°C]
[1], Crystal	87.1

Conditions	Molar enthalpy of transition or fusion [kcal/mol]
[2]	3.54

Cn1ccnc1 [1-methylimidazole]
[1]
Conditions	vapor or sublimation pressure [kPa]
255.52 K, Crystal	0.00122
256.47 K, Metastable liquid	0.00184
256.5 K, Crystal	0.00139
257.48 K, Crystal	0.00157
257.48 K, Metastable liquid	0.00204
258.55 K, Metastable liquid	0.00226
258.57 K, Crystal	0.00177
259.5 K, Metastable liquid	0.00249
259.53 K, Crystal	0.00201
260.46 K, Metastable liquid	0.00273
260.48 K, Crystal	0.00225
261.42 K, Metastable liquid	0.00301
261.45 K, Crystal	0.00255
262.38 K, Metastable liquid	0.0033
262.41 K, Crystal	0.00277
263.36 K, Metastable liquid	0.00362
263.37 K, Crystal	0.00317
264.36 K, Crystal	0.00356
265.16 K, Metastable liquid	0.00425
265.35 K, Crystal	0.004
267.28 K, Metastable liquid	0.00515
269.27 K, Metastable liquid	0.00618
271.23 K, Liquid	0.00739
273.22 K, Liquid	0.00866
275.16 K, Liquid	0.01042
277.18 K, Liquid	0.01215
281.14 K, Liquid	0.01675
285.09 K, Liquid	0.02306
287.07 K, Liquid	0.02725
289.06 K, Liquid	0.03146
291.04 K, Liquid	0.03655
293.04 K, Liquid	0.04224
295.03 K, Liquid	0.049
297.03 K, Liquid	0.05608
298.98 K, Liquid	0.06498
300.98 K, Liquid	0.07451
302.96 K, Liquid	0.0852
304.98 K, Liquid	0.09635

Conditions	Normal melting temperature [°C]
[1], Crystal	-4.5

Conditions	Molar enthalpy of transition or fusion [kcal/mol]
[2]	2.94
